Experimental data reported in patent US9499550B2 (BRISTOL-MYERS SQUIBB COMPANY, priority 2012, dated 2016).

Key:
[1] = system: HCV genotype 1a (H77 strain) replicon in HUH-7 cells; experiment: HCV replicon luciferase reporter assay, genotype 1a; type: cell-based; conditions: Hepatitis C virus, Huh-7, 72 h, HCV genotype 1a replicon luciferase, 3 days incubation, read-out: LE_1a (EC50, range)
Summary of the method: (§1)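 Replicon inhibition for both genotypes was measured as Renilla luciferase signal (EnduRen, 7.5 μM final, 2 h) after 3-day, 37° C exposure of replicon-bearing HUH-7 cells in 4% FCS DMEM, 0.5% DMSO. The 1b construct carries S1179I; the 1a H77 construct carries P1496L and S2204I. Twenty-point, 3-fold dilutions were fitted four-parametrically for EC50, and CC50 was taken from multiplexed Cell Titer-Blue.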

[2] = system: HCV genotype 1b (Con1) replicon in HUH-7 cells; experiment: HCV replicon luciferase reporter assay, genotype 1b; type: cell-based; conditions: Hepatitis C virus, Huh-7, 72 h, HCV genotype 1b replicon luciferase, 3 days incubation, read-out: LE_1b (EC50, range)
Summary of the method: as §1

Structure (SMILES)	EC50 [1] [nM]	EC50 [2] [nM]
CCCOc1ccc2c(O[C@@H]3C[C@H]4C(=O)N[C@]5(C(=O)NS(=O)(=O)C6CC6)C[C@H]5/C=C\CC[C@@H](C)C[C@@H](C)[C@H](NC(=O)OC(C)(C)C)C(=O)N4C3)nccc2c1 [Compound 5169, tert-butyl ((2R,6S,7R,9R,13aS,14aR,16aS,Z)-14a-((cyclopropylsulfonyl)carbamoyl)-7,9-dimethyl-5,16-dioxo-2-((6-propoxyisoquinolin-1-yl)oxy)-1,2,3,5,6,7,8,9,10,11,13a,14,14a,15,16,16a-hexadecahydrocyclopropa[e]pyrrolo[1,2-a][1,4]diazacyclopentadecin-6-yl)carbamate]	< 5.46	< 5.46
CCCOc1ccc2c(O[C@@H]3C[C@H]4C(=O)N[C@]5(C(=O)NS(=O)(=O)C6CC6)C[C@H]5/C=C\CC[C@H](C)C[C@@H](C)[C@H](NC(=O)OC(C)(C)C(F)(F)F)C(=O)N4C3)nccc2c1 [Compound 5170, 1,1,1-trifluoro-2-methylpropan-2-yl((2R,6S,7R,9S,13aS,14aR,16aS,Z)-14a-((cyclopropylsulfonyl)carbamoyl)-7,9-dimethyl-5,16-dioxo-2-((6-propoxyisoquinolin-1-yl)oxy)-1,2,3,5,6,7,8,9,10,11,13a,14,14a,15,16,16a-hexadecahydrocyclopropa[e]pyrrolo[1,2-a][1,4]diazacyclopentadecin-6-yl)carbamate]	4.82 to 103	< 5.46
CCCOc1ccc2c(O[C@@H]3C[C@H]4C(=O)N[C@]5(C(=O)NS(=O)(=O)C6CC6)C[C@H]5/C=C\CC[C@@H](C)C[C@@H](C)[C@H](NC(=O)OC(C)(C)C(F)(F)F)C(=O)N4C3)nccc2c1 [Compound 5171, 1,1,1-trifluoro-2-methylpropan-2-yl((2R,6S,7R,9R,13aS,14aR,16aS,Z)-14a-((cyclopropylsulfonyl)carbamoyl)-7,9-dimethyl-5,16-dioxo-2-((6-propoxyisoquinolin-1-yl)oxy)-1,2,3,5,6,7,8,9,10,11,13a,14,14a,15,16,16a-hexadecahydrocyclopropa[e]pyrrolo[1,2-a][1,4]diazacyclopentadecin-6-yl)carbamate]	< 5.46	< 5.46
[2H]C([2H])([2H])C(OC(=O)N[C@@H]1C(=O)N2C[C@H](Oc3nccc4cc(OCCC)ccc34)C[C@H]2C(=O)N[C@]2(C(=O)NS(=O)(=O)C3CC3)C[C@H]2/C=C\CC[C@H](C)C[C@H]1C)(C([2H])([2H])[2H])C(F)(F)F [Compound 5172]	4.82 to 103	< 5.46
[2H]C([2H])([2H])C(OC(=O)N[C@@H]1C(=O)N2C[C@H](Oc3nccc4cc(OCCC)ccc34)C[C@H]2C(=O)N[C@]2(C(=O)NS(=O)(=O)C3CC3)C[C@H]2/C=C\CC[C@@H](C)C[C@H]1C)(C([2H])([2H])[2H])C(F)(F)F [Compound 5173]	< 5.46	< 5.46
[2H]C([2H])([2H])C(OC(=O)N[C@@H]1C(=O)N2C[C@H](Oc3nccc4cc(OC)ccc34)CC2C(=O)N[C@]2(C(=O)NS(=O)(=O)C3(C)CC3)C[C@H]2/C=C\CC[C@H](C)C[C@H]1C)(C([2H])([2H])[2H])C(F)(F)F (stereo partly drawn) [Compound 5174, 1,1,1,3,3,3-hexadeutero-2-(trifluoromethyl)propan-2-yl((2R,6S,7R,9S,13aS,14aR,16aS,Z)-2-((6-methoxyisoquinolin-1-yl)oxy)-7,9-dimethyl-14a-(((1-methylcyclopropyl)sulfonyl)carbamoyl)-5,16-dioxo-1,2,3,5,6,7,8,9,10,11,13a,14,14a,15,16,16a-hexadecahydrocyclopropa[e]pyrrolo[1,2-a][1,4]diazacyclopentadecin-6-yl)carbamate]	< 5.46	< 5.46
[2H]C([2H])([2H])C(OC(=O)N[C@@H]1C(=O)N2C[C@H](Oc3nccc4cc(OC)ccc34)CC2C(=O)N[C@]2(C(=O)NS(=O)(=O)C3(C)CC3)C[C@H]2/C=C\CC[C@@H](C)C[C@H]1C)(C([2H])([2H])[2H])C(F)(F)F (stereo partly drawn) [Compound 5175, 1,1,1,3,3,3-hexadeutero-2-(trifluoromethyl)propan-2-yl((2R,6S,7R,9R,13aS,14aR,16aS,Z)-2-((6-methoxyisoquinolin-1-yl)oxy)-7,9-dimethyl-14a-(((1-methylcyclopropyl)sulfonyl)carbamoyl)-5,16-dioxo-1,2,3,5,6,7,8,9,10,11,13a,14,14a,15,16,16a-hexadecahydrocyclopropa[e]pyrrolo[1,2-a][1,4]diazacyclopentadecin-6-yl)carbamate]	< 5.46	< 5.46
[2H]C([2H])([2H])C(C)(OC(=O)N[C@@H]1C(=O)N2C[C@H](Oc3nccc4cc(OC)ccc34)CC2C(=O)N[C@]2(C(=O)NS(=O)(=O)C3(C)CC3)C[C@H]2/C=C\CC[C@H](C)C[C@H]1C)C([2H])([2H])[2H] (stereo partly drawn) [Compound 5176, 1,1,1,3,3,3-hexadeutero-2-methylpropan-2-yl((2R,6S,7R,9S,13aS,14aR,16aS,Z)-2-((6-methoxyisoquinolin-1-yl)oxy)-7,9-dimethyl-14a-(((1-methylcyclopropyl)sulfonyl)carbamoyl)-5,16-dioxo-1,2,3,5,6,7,8,9,10,11,13a,14,14a,15,16,16a-hexadecahydrocyclopropa[e]pyrrolo[1,2-a][1,4]diazacyclopentadecin-6-yl)carbamate]	4.82 to 103	< 5.46
[2H]C([2H])([2H])C(C)(OC(=O)N[C@@H]1C(=O)N2C[C@H](Oc3nccc4cc(OC)ccc34)CC2C(=O)N[C@]2(C(=O)NS(=O)(=O)C3(C)CC3)C[C@H]2/C=C\CC[C@@H](C)C[C@H]1C)C([2H])([2H])[2H] (stereo partly drawn) [Compound 5177, 1,1,1,3,3,3-hexadeutero-2-methylpropan-2-yl((2R,6S,7R,9R,13aS,14aR,16aS,Z)-2-((6-methoxyisoquinolin-1-yl)oxy)-7,9-dimethyl-14a-(((1-methylcyclopropyl)sulfonyl)carbamoyl)-5,16-dioxo-1,2,3,5,6,7,8,9,10,11,13a,14,14a,15,16,16a-hexadecahydrocyclopropa[e]pyrrolo[1,2-a][1,4]diazacyclopentadecin-6-yl)carbamate]	< 5.46	< 5.46
COc1ccc2c(O[C@@H]3C[C@H]4C(=O)N[C@]5(C(=O)NS(=O)(=O)C6(C)CC6)C[C@H]5/C=C\CC[C@H](C)C[C@@H](C)[C@H](NC(=O)NC(C)(C)C)C(=O)N4C3)nccc2c1 [Compound 5178, (2R,6S,7R,9S,13aS,14aR,16aS,Z)-6-(3-(tert-butyl)ureido)-2-((6-methoxyisoquinolin-1-yl)oxy)-7,9-dimethyl-N-((1-methylcyclopropyl)sulfonyl)-5,16-dioxo-1,2,3,5,6,7,8,9,10,11,13a,14,14a,15,16,16a-hexadecahydrocyclopropa[e]pyrrolo[1,2-a][1,4]diazacyclopentadecine-14a-carboxamide]	4.82 to 103	< 5.46
COc1ccc2c(O[C@@H]3C[C@H]4C(=O)N[C@]5(C(=O)NS(=O)(=O)C6(C)CC6)C[C@H]5/C=C\CC[C@@H](C)C[C@@H](C)[C@H](NC(=O)NC(C)(C)C)C(=O)N4C3)nccc2c1 [Compound 5179, (2R,6S,7R,9R,13aS,14aR,16aS,Z)-6-(3-(tert-butyl)ureido)-2-((6-methoxyisoquinolin-1-yl)oxy)-7,9-dimethyl-N-((1-methylcyclopropyl)sulfonyl)-5,16-dioxo-1,2,3,5,6,7,8,9,10,11,13a,14,14a,15,16,16a-hexadecahydrocyclopropa[e]pyrrolo[1,2-a][1,4]diazacyclopentadecine-14a-carboxamide]	< 5.46	< 5.46
COc1ccc2c(O[C@@H]3C[C@H]4C(=O)N[C@]5(C(=O)NS(=O)(=O)C6(C)CC6)C[C@H]5/C=C\CC[C@H](C)C[C@@H](C)[C@H](NC(=O)c5ccc(N(C)C)cc5)C(=O)N4C3)nccc2c1 [Compound 5180, (2R,6S,7R,9S,13aS,14aR,16aS,Z)-6-(4-(dimethylamino)benzamido)-2-((6-methoxyisoquinolin-1-yl)oxy)-7,9-dimethyl-N-((1-methylcyclopropyl)sulfonyl)-5,16-dioxo-1,2,3,5,6,7,8,9,10,11,13a,14,14a,15,16,16a-hexadecahydrocyclopropa[e]pyrrolo[1,2-a][1,4]diazacyclopentadecine-14a-carboxamide]	< 5.46	< 5.46
COc1ccc2c(O[C@@H]3C[C@H]4C(=O)N[C@]5(C(=O)NS(=O)(=O)C6(C)CC6)C[C@H]5/C=C\CC[C@@H](C)C[C@@H](C)[C@H](NC(=O)c5ccc(N(C)C)cc5)C(=O)N4C3)nccc2c1 [Compound 5181, (2R,6S,7R,9R,13aS,14aR,16aS,Z)-6-(4-(dimethylamino)benzamido)-2-((6-methoxyisoquinolin-1-yl)oxy)-7,9-dimethyl-N-((1-methylcyclopropyl)sulfonyl)-5,16-dioxo-1,2,3,5,6,7,8,9,10,11,13a,14,14a,15,16,16a-hexadecahydrocyclopropa[e]pyrrolo[1,2-a][1,4]diazacyclopentadecine-14a-carboxamide]	< 5.46	< 5.46
C[C@H]1CC/C=C\[C@@H]2C[C@@]2(C(=O)NS(=O)(=O)C2CC2)NC(=O)[C@@H]2C[C@@H](Oc3nc4ccccc4c4ccccc34)CN2C(=O)[C@@H](NC(=O)OC(C)(C)C)[C@H](C)C1 [Compound 5182, tert-butyl ((2R,6S,7R,9S,13aS,14aR,16aS,Z)-14a-((cyclopropylsulfonyl)carbamoyl)-7,9-dimethyl-5,16-dioxo-2-(phenanthridin-6-yloxy)-1,2,3,5,6,7,8,9,10,11,13a,14,14a,15,16,16a-hexadecahydrocyclopropa[e]pyrrolo[1,2-a][1,4]diazacyclopentadecin-6-yl)carbamate]	< 5.46	< 5.46
